From ChEMBL document CHEMBL1201862, “PubChem BioAssay data set” (2004)
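Exposure lasted 48 hours, with cells grown in 96-well plates and compounds tested at five concentrations. GI50 = concentration required for 50% inhibition of growth.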 The source made the active and inactive calls. No stated cut-off is given here; in the data, active = GI50 up to about 1.1 µM and inactive = higher.

Tests used:
Assay in all cases: NCI anticancer screen, dose series, 48 h
SR = system: SR
NCI-H23 = system: NCI-H23
UACC-257 = system: UACC-257
COLO 205 = system: COLO 205
DMS-273 = system: DMS-273
UO-31 = system: UO-31
SK-OV-3 = system: SK-OV-3
OVCAR-4 = system: OVCAR-4
786-0 = system: 786-0
NCI-H226 = system: NCI-H226
SNB-75 = system: SNB-75
LXFL 529 = system: LXFL 529
XF498 = system: XF498
HL-60 = system: HL-60
SK-MEL-28 = system: SK-MEL-28
KM12 = system: KM12
HCC 2998 = system: HCC 2998
Malme-3M = system: Malme-3M
SW-620 = system: SW-620
UACC-62 = system: UACC-62
DLD-1 = system: DLD-1
SNB-19 = system: SNB-19
HCT-15 = system: HCT-15
KM-20L2 = system: KM-20L2
CCRF-CEM = system: CCRF-CEM
NCI-H522 = system: NCI-H522
TK-10 = system: TK-10
MOLT-4 = system: MOLT-4
HOP-92 = system: HOP-92
A549 = system: A549
HOP-18 = system: HOP-18
SF-295 = system: SF-295
DMS-114 = system: DMS-114
SN12C = system: SN12C
NCI-H460 = system: NCI-H460
ACHN = system: ACHN
OVCAR-8 = system: OVCAR-8
SK-MEL-5 = system: SK-MEL-5
EKVX = system: EKVX
CAKI-1 = system: CAKI-1
RXF 393 = system: RXF 393
RXF 631 = system: RXF 631
SF-539 = system: SF-539
M19-MEL = system: M19-MEL
IGROV-1 = system: IGROV-1
OVCAR-3 = system: OVCAR-3
M14 = system: M14
HOP-62 = system: HOP-62
HCT-116 = system: HCT-116
HT-29 = system: HT-29
LOX IMVI = system: LOX IMVI

For Cc1ccc([N+](=O)[O-])cc1NC(=O)C(=O)Cc1nc2ccc(C(=O)c3ccccc3)cc2nc1O, the GI50 (SR) was 60 µM (inactive), the GI50 (NCI-H23) was > 100 µM (inactive) and the GI50 (UACC-257) was > 100 µM (inactive). For the same compound, the GI50 (COLO 205) was > 100 µM (inactive), the GI50 (DMS-273) was > 100 µM (inactive) and the GI50 (UO-31) was > 100 µM (inactive). For the same compound, the GI50 (SK-OV-3) was > 100 µM (inactive), the GI50 (OVCAR-4) was > 100 µM (inactive) and the GI50 (786-0) was > 100 µM (inactive). For the same compound, the GI50 (NCI-H226) was > 100 µM (inactive), the GI50 (SNB-75) was 56.5 µM (inactive) and the GI50 (LXFL 529) was > 100 µM (inactive). For the same compound, the GI50 (XF498) was > 100 µM (inactive), the GI50 (HL-60) was > 100 µM (inactive) and the GI50 (SK-MEL-28) was > 100 µM (inactive). The GI50 (KM12) was 93.3 µM (inactive), the GI50 (HCC 2998) was > 100 µM (inactive) and the GI50 (Malme-3M) was > 100 µM (inactive). The GI50 (SW-620) was > 100 µM (inactive), the GI50 (UACC-62) was > 100 µM (inactive) and the GI50 (DLD-1) was > 100 µM (inactive). For the same compound, the GI50 (SNB-19) was > 100 µM (inactive), the GI50 (HCT-15) was greater than 100 µM and the GI50 (KM-20L2) was > 100 µM (inactive). For the same compound, the GI50 (CCRF-CEM) was > 100 µM (inactive), the GI50 (NCI-H522) was > 100 µM (inactive) and the GI50 (TK-10) was > 100 µM (inactive). For the same compound, the GI50 (MOLT-4) was > 100 µM (inactive), the GI50 (HOP-92) was 42.2 µM (inactive) and the GI50 (A549) was > 100 µM (inactive). The GI50 (HOP-18) was > 100 µM (inactive), the GI50 (SF-295) was > 100 µM (inactive) and the GI50 (DMS-114) was 90.6 µM (inactive). The GI50 (SN12C) was > 100 µM (inactive), the GI50 (NCI-H460) was > 100 µM (inactive) and the GI50 (ACHN) was > 100 µM (inactive). For the same compound, the GI50 (OVCAR-8) was > 100 µM (inactive), the GI50 (SK-MEL-5) was > 100 µM (inactive) and the GI50 (EKVX) was > 100 µM (inactive). The GI50 (CAKI-1) was > 100 µM (inactive), the GI50 (RXF 393) was > 100 µM (inactive) and the GI50 (RXF 631) was > 100 µM (inactive). For the same compound, the GI50 (SF-539) was > 100 µM (inactive), the GI50 (M19-MEL) was > 100 µM (inactive) and the GI50 (IGROV-1) was > 100 µM (inactive). The GI50 (OVCAR-3) was > 100 µM (inactive), the GI50 (M14) was > 100 µM (inactive) and the GI50 (HOP-62) was > 100 µM (inactive). For the same compound, the GI50 (HCT-116) was > 100 µM (inactive), the GI50 (HT-29) was > 100 µM (inactive) and the GI50 (LOX IMVI) was > 100 µM (inactive).
